Reference: patent US20250213645A1, “PHARMACEUTICAL COMPOSITION FOR MODULATING IMMUNE RESPONSE” (L-BASE CO., LTD., priority 2021, published 2025)
Where a SMILES comes first, the peptide text is derived from it. Where no end group is shown, it is not given here.

Experiments:
T cells or macrophages = type: in vivo, mouse
Experimental: (§1) After administering the cancer immunotherapy drug and the compound of the present invention alone or in combination to a syngeneic mouse model produced using CT26 cells in which CAGE expression was induced, tumor tissue was isolated from each subject. The obtained tumor tissue was made into a paraffin block and then sectioned, and histological analysis was performed by performing H&E staining and microscopic observation on tissue slides. […] Fluorescent images were taken at 20× magnification using a confocal microscope, and the number of T cells and macrophages (M2- and M1-type macrophages) on the entire screen was then measured and analyzed.

[1] = tested on: CT26 cancer cells in which CAGE expression was induced; assay: Overall survival (OS) period, Kaplan Meier analysis, syngeneic mouse model; type: in vivo; conditions: for 39 days, 3-PhPh-AQTGTGKT 10 mpk i.v. every 2 days, anti-CTLA4 5 mpk, anti-PD-1 10 mpk every 3 days
Experimental: Next, an overall survival (OS) period according to the single or combined administration of the compound of the present invention and the cancer immunotherapy drug was compared. CT26 cancer cells in which CAGE expression was induced were mixed with Matrigel in a ratio of 1:1, and 200 μL of the cell mixture was injected into a female BALB/c mouse at a concentration of 1×10^6 cells/mouse to produce a syngeneic mouse model. After cell inoculation was completed, when the volume of the formed tumor reached 70 to 120 mm^3, groups were randomly separated and drug administration was performed. The cancer immunotherapy drug (anti-CTLA4) was administered at intervals of 3 days at a concentration of 5 mpk, and the compound of the present invention (3-PhPh-AQTGTGKT) was intravenously administered at intervals of 2 days at a concentration of 10 mpk, and the survival rate of the subjects was analyzed using Kaplan Meier analysis.
Subsequently, the effect of the coadministration of the compound of the present invention and a different cancer immunotherapy drug on the survival rate of subjects was confirmed. CT26 cancer cells in which CAGE expression was induced were mixed with Matrigel in a ratio of 1:1, and 200 μL of the cell mixture was injected into a female BALB/c mouse at a concentration of 1×10^6 cells/mouse to produce a syngeneic mouse model. […]

[2] = tested on: CT26 cancer cells in which CAGE expression was induced; assay: Anticancer efficacy of compound and anti-PD-1, alone or combined, in syngeneic mouse model; type: in vivo; conditions: for absolute weight of the tumor: tumor removed on day 15, compound 10 mpk i.v. every 2 days, anti-PD-1 10 mg/kg i.p. every 3 days; for tumor volume (tumor growth): vs control, compound 10 mpk intravenously every 2 days, anti-PD-1 10 mg/kg intraperitoneally every 3 days, up to day 15
Experimental: (§2) CT26 cancer cells in which CAGE expression was induced were mixed with Matrigel in a ratio of 1:1, and 200 μL of the cell mixture was injected into a female BALB/c mouse at a concentration of 1×10^6 cells/mouse to produce a syngeneic mouse model. After cell inoculation was completed, when the volume of the formed tumor reached 70 to 120 mm^3, groups were randomly separated and drug administration was performed. A cancer immunotherapy drug (anti-PD-1) was intraperitoneally administered at intervals of 3 days at a concentration of 10 mg/kg (mpk), and the compounds according to the present invention, AQTGTGKT, 3-PhPh-AQTGTGKT, and naphthyl-AQTGTGKT, were administered intravenously at intervals of 2 days at a concentration of 10 mpk. The size of the tumor was measured twice a week to calculate a tumor volume, and the weight of a subject was also measured. On day 15 after the start of administration, the tumor was removed, and the absolute weight was measured.

[3] = tested on: CT26 cancer cells in which CAGE expression was induced; assay: Anticancer efficacy of 3-PhPh-AQTGTGKT and anti-CTLA4, alone or combined, in syngeneic mouse model; type: in vivo; conditions: 3-PhPh-AQTGTGKT 10 mpk i.v. every 2 days, anti-CTLA4 5 mpk i.p. every 3 days
Experimental: as §2, with “(anti-CTLA4)” for “(anti-PD-1)”, “5 mpk,” for “10 mg/kg (mpk),”, “compound of” for “compounds according to”, “invention (3-PhPh-AQTGTGKT) was intravenously” for “invention, AQTGTGKT, 3-PhPh-AQTGTGKT, and naphthyl-AQTGTGKT, were”, “administered” for “administered intravenously”

[4] = tested on: CT26 cells in which CAGE expression was induced; assay: Histological analysis of tumor tissue by H&E staining; type: in vivo, mouse; conditions: single or combined administration; FIG. 11A
Experimental: as §1

CXCL10 = CXCL10 mRNA expression in tumor tissue by real-time PCR; type: in vivo, mouse; conditions: relative to control, 2^-ΔΔCt method; FIG. 12
Experimental: After administering the cancer immunotherapy drug and the compound of the present invention alone or in combination to a syngeneic mouse model produced using CT26 cells in which CAGE expression was induced, tumor tissue was isolated from each subject. RNA was extracted from the obtained tumor tissue, cDNA was synthesized, and then an mRNA expression level of the CXCL10 gene was measured through real-time PCR. For each mRNA, a relative expression level compared to the control was calculated through the 2^−ΔΔ^Ct method.

| Compound | frequency of M2 macrophages (CD206) in tumor tissue (T cells or macrophages; FIG. 11C) | frequency of total macrophages (F4/80) in tumor tissue (T cells or macrophages; FIG. 11C) | frequency of cytotoxic T cells (CD8 T cells) in tumor tissue (T cells or macrophages; mouse, in vivo) | frequency of total T cells (CD4 T cells) in tumor tissue (T cells or macrophages; vs control or single administration groups, FIG. 11B) | subjects survived ([1]; of 10 subjects, control 2 survived) | subjects died ([1]; control 8 died) | absolute weight of the tumor [2] | tumor volume (tumor growth) [2] | tumor growth (tumor volume) ([3]; from day 11) | absolute weight of the tumor ([3]; tumor removed on day 15) | tumor cell death in tumor tissue (H&E staining) [4] | CXCL10 mRNA expression level in tumor tissue (CXCL10) |
| --- | --- | --- | --- | --- | --- | --- | --- | --- | --- | --- | --- | --- |
| C[C@H](NC(=O)c1cccc(-c2ccccc2)c1)C(=O)N[C@@H](CCC(N)=O)C(=O)N[C@H](C(=O)NCC(=O)N[C@H](C(=O)NCC(=O)N[C@@H](CCCCN)C(=O)N[C@H](C(=O)O)[C@@H](C)O)[C@@H](C)O)[C@@H](C)O [3-PhPh-AQTGTGKT] (HELM PEPTIDE1{[O=C(c1cccc(-c2ccccc2)c1)[*:2]].A.Q.T.G.T.G.K.T}$$$$V2.0) | no significant difference between the frequencies of macrophages | no significant difference between the frequencies of macrophages | no significant differences in the frequency of immune cells | no significant differences in the frequency of immune cells | 3 | 7 out of 10 subjects | lower than that of the control | tumor growth began to decrease compared to the control | statistically significant decrease in tumor growth | lower than that of the control | some areas where tumor cells were killed were observed | similar |
| C[C@H](NC(=O)c1ccc2ccccc2c1)C(=O)N[C@@H](CCC(N)=O)C(=O)N[C@H](C(=O)NCC(=O)N[C@H](C(=O)NCC(=O)N[C@@H](CCCCN)C(=O)N[C@H](C(=O)O)[C@@H](C)O)[C@@H](C)O)[C@@H](C)O [naphthyl-AQTGTGKT, Naphthyl-AQTGTGKT] (HELM PEPTIDE1{[O=C(c1ccc2ccccc2c1)[*:2]].A.Q.T.G.T.G.K.T}$$$$V2.0) |  |  |  |  |  |  | no significant difference between the tumor weight | no significant difference in tumor volume |  |  |  |  |
| AQTGTGKT [AQTGTGKT] |  |  |  |  |  |  | no significant difference between the tumor weight | no significant difference in tumor volume |  |  |  |  |
